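Five concentrations, 48 hours, 96-well plates. Abbreviation: GI50, concentration required for 50% inhibition of growth.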 Active and inactive are the calls of the source. Cut-off read from the data, not from the text of the source: active = GI50 up to about 1.1 µM and inactive = higher.
Columns and labels:
Assay in all cases: DTP human tumour cell line panel, 48 h
MDA-N = tested on: MDA-N
T47D = tested on: T47D
DMS-114 = tested on: DMS-114
HOP-18 = tested on: HOP-18
LXFL 529 = tested on: LXFL 529
M19-MEL = tested on: M19-MEL
SNB-78 = tested on: SNB-78
XF498 = tested on: XF498

Compound | GI50 (MDA-N) | GI50 (T47D) | other results
CN1CN(c2ccccc2)C2(CCN(CCCCCCF)CC2)C1=O | 63.8 µM (inactive) | 29.9 µM (inactive) | 
O=P(Nc1cccc(Cl)c1)(Oc1ccccc1)N(CCCl)CCCl (stereo unspecified) |  |  | GI50 (DMS-114): 12.7 µM (inactive); GI50 (HOP-18): 24.9 µM (inactive); GI50 (LXFL 529): 11.7 µM (inactive); GI50 (M19-MEL): 18 µM (inactive); GI50 (SNB-78): 18.3 µM (inactive)
COc1ccc(/C=N/NC(=O)c2ccc(O)c(CN(C)C)c2)cc1 | > 100 µM (inactive) | > 100 µM (inactive) | 
CC(C)CCCCCCCCCCCCC(=O)NCC(=O)NC1C(C)OC(Nc2ncnc3c2ncn3C)C(O)C1O (stereo unspecified) |  |  | GI50 (DMS-114): 7.82 µM (inactive); GI50 (HOP-18): 2.48 µM (inactive); GI50 (M19-MEL): 11.4 µM (inactive); GI50 (SNB-78): 4.72 µM (inactive); GI50 (XF498): 3.56 µM (inactive)
CN(CC(=O)O)c1ncc2c(n1)-c1ccccc1SC2 | > 100 µM (inactive) |  | 
NC1(c2cc3ccccc3s2)CCCC1 | 48.9 µM (inactive) | 36.3 µM (inactive) | 
c1ccc2c(c1)CCCN1CCc3ccccc3C21 (stereo unspecified) | 27 µM (inactive) | > 100 µM (inactive) | 
C=C1C(O)CC[C@]2(C)C1C1OC(C)(C)O[C@]13CC(=O)C(C)=C([C@H]1OC(C)(C)OC12)C3(C)C (stereo partly specified) |  | 47.9 µM (inactive) | 
Cn1c(=O)c2c(no[n+]2[O-])n(C)c1=O | 22.4 µM (inactive) | > 100 µM (inactive) | 
CC(C)=CC(=O)OC1C2C(C)C(=O)OC2C(O)C(C)C2C=CC(=O)C21C (stereo unspecified) |  |  | GI50 (DMS-114): 2.58 µM (inactive); GI50 (HOP-18): 6.67 µM (inactive); GI50 (M19-MEL): 3.01 µM (inactive); GI50 (SNB-78): 3.24 µM (inactive); GI50 (XF498): 5.08 µM (inactive)
CCOC(=O)NNC(=O)NCCCCNC(=O)NNC(=O)OCC | > 100 µM (inactive) | > 100 µM (inactive) | 
CCCOP(=O)(OCCC)OC(C(F)(F)F)C(F)(F)F | > 100 µM (inactive) | > 100 µM (inactive) | 
CS/C(=N\c1ccccc1)N(c1ccccc1)c1nc(=[N+](C)C)ss1.[O-][Cl+3]([O-])([O-])[O-] |  |  | GI50 (DMS-114): 0.0486 µM (active); GI50 (M19-MEL): 0.0877 µM (active); GI50 (SNB-78): 5.06 µM (inactive)
O=S(=O)(O)CCSSCCS(=O)(=O)O | > 1000 µM (inactive) | > 1000 µM (inactive) | 
O=C1CC(/C=C/c2ccco2)=C(O)C1=O | 12.3 µM (inactive) | 14.2 µM (inactive) | 
CC(=O)OCCCC(NC(=O)OC(C)(C)C)C(=O)NC(CCCOC(C)=O)C(=O)NC(Cc1ccc([N+](=O)[O-])cc1)C(=O)NCC(=O)OCc1ccccc1 (stereo unspecified) | 15.3 µM (inactive) | 18 µM (inactive) | 

Compound | GI50 (MDA-N) | GI50 (T47D) | other results
O=C(c1ccc(O)cc1O)C1C(c2ccc(O)cc2)OC(c2ccc(O)cc2)C1C(=O)c1ccc(O)cc1O (stereo unspecified) |  |  | GI50 (LXFL 529): 17.3 µM (inactive); GI50 (M19-MEL): 19.6 µM (inactive); GI50 (SNB-78): 19.1 µM (inactive); GI50 (XF498): 15.5 µM (inactive)
Clc1ccc2c(Cl)nc(-c3ccccc3)nc2c1 |  |  | GI50 (DMS-114): 18.6 µM (inactive); GI50 (LXFL 529): 26.9 µM (inactive); GI50 (M19-MEL): 47.1 µM (inactive); GI50 (SNB-78): 11.4 µM (inactive); GI50 (XF498): 3.88 µM (inactive)
CC(C)(C)[Si](C)(C)OCC1OC(n2cnc3c(N)ncnc32)C2OC(=S)OC12 (stereo unspecified) | 27.2 µM (inactive) |  | 
CCC1(c2ccc(N)cc2)CCC(=O)NC1=O (stereo unspecified) [AMINOGLUTETHIMIDE] | 3250 µM (inactive) | 2070 µM (inactive) | GI50 (DMS-114): 1530 µM (inactive); GI50 (HOP-18): 3120 µM (inactive); GI50 (M19-MEL): 2210 µM (inactive); GI50 (SNB-78): 2170 µM (inactive); GI50 (XF498): 1550 µM (inactive)
CN(C)CCN1C(=O)c2ccccc2C1(O)c1ccc(Cl)cc1 (stereo unspecified) | 79.4 µM (inactive) | 94.8 µM (inactive) | 
CC(=O)NC1C(OCc2ccccc2)OC(CO)C(O)C1OCC(=O)NC(C)C(=O)NC(CCC(=O)NCCCCCNc1c2ccccc2nc2cccc([N+](=O)[O-])c12)C(N)=O (stereo unspecified) | < 0.01 µM (active) |  | 
C1CSCC2(COC2)CS1 | > 100 µM (inactive) |  | 
NC(=O)N/N=C1\CC2C3CC4C2C4C13 (stereo unspecified) | > 100 µM (inactive) | > 100 µM (inactive) | 
Oc1cc(-c2ccc(F)cc2)nc2ncccc12 |  | 48.1 µM (inactive) | 
Cc1cc(C)c2c(n1)S(=O)(=O)N(CCCN1CCN(c3cccc(C(F)(F)F)c3)CC1)C(C(=O)c1ccc(Cl)cc1)=C2O | 3.15 µM (inactive) | 3.98 µM (inactive) | 
C=C(NC(=O)C(=C)NC(=O)c1csc(C2=NC3c4csc(n4)C4NC(=O)c5csc(n5)C(C(C)(O)C(C)O)NC(=O)C5CSC(=N5)/C(=C/C)NC(=O)C(C(C)O)NC(=O)c5csc(n5)C3(CC2)NC(=O)C(C)NC(=O)C(=C)NC(=O)C(=C)NC(=O)C(C(C)C)NC2C=Cc3c(C(C)O)cc(nc3C2O)C(=O)OC4C)n1)C(N)=O (stereo unspecified) | 1.56 µM (inactive) | 2.4 µM (inactive) | 
O=c1n(-c2ccccc2)c(=O)n2n1C1C=CC2CCCCCC1 |  | > 100 µM (inactive) | 
COc1cc(C(O)CCBr)c(OC)cc1C (stereo unspecified) | 2.79 µM (inactive) | > 72.1 µM (inactive) | 
Cc1ccc(S(=O)(=O)n2cc(-c3cc(C(F)(F)F)ccn3)c3cc(Br)ccc32)cc1 | 45.2 µM (inactive) | 1.55 µM (inactive) | 
COc1ccc(C2Oc3cc(OC)c(O)cc3[C@@H]2C)cc1 (stereo partly specified) |  |  | GI50 (DMS-114): 18.7 µM (inactive); GI50 (HOP-18): 5.05 µM (inactive); GI50 (LXFL 529): 17.5 µM (inactive); GI50 (M19-MEL): > 10 µM (inactive); GI50 (SNB-78): > 100 µM (inactive); GI50 (XF498): 16.9 µM (inactive)
CC1(C)CC(C2=NCCO2)CC(C)(C)N1 | > 100 µM (inactive) | > 100 µM (inactive) | 
